Where a name gives a salt, the structure may show the parent alone.
Columns and labels:
Cyperus iria [1] = test: Table 23 field trial, treatment: 4-6 leaf stage: weed control; type: in vivo; conditions: 36 days after application
Source text: (§1) Field trial: Treatment: 4-6 leaf stage, evaluation 36 days after the application.

Oryza sativa [2] = test: Table 23 field trial, treatment: 4-6 leaf stage: rice damage; type: in vivo; conditions: 36 days after application
Source text: as §1

Oryza sativa [3] = test: Table 8 greenhouse trial, treatment at the 1-2 leaf stage: rice damage; type: in vivo; conditions: 22 days after application
Source text: Seeds or rhizome pieces of mono- and dicotyledonous weed plants are placed into sandy loam soil in plastic pots, covered with soil and grown in a greenhouse under good growth conditions (temperature, atmospheric humidity, water supply). Weeds which are encountered in the cultivation of rice are cultivated in pots in which the water level is up to 2 cm over the soil surface. […] The active compound combinations according to the invention, formulated as wettable powders or emulsion concentrates, and, in parallel experiments, the correspondingly formulated individual active compounds are sprayed onto the green parts of the plants at different dosages using an amount of water of 300 to 600 l/ha (converted), and, after about 3 to 4 weeks of the test plants in the greenhouse under optimum growth conditions (temperature, atmospheric humidity, water supply), the effect of the preparations is evaluated visually in comparison to untreated controls. In the case of rice or weeds which are encountered in the cultivation of rice, the active compounds are also added directly to the water for irrigation (application analogous to the so-called granules application) or sprayed onto plants and added to the water for irrigation. The experiments were designed with several, up to five, repetitions. The herbicidal compositions according to the invention also have good herbicidal post-emergence activity against a broad spectrum of economically important weed grasses and broad-leaved weeds.

Oryza sativa [4] = test: Table 22 field trial, treatment: 1-2 leaf stage: rice damage; type: in vivo; conditions: 28 days after application
Source text: (§2) Field trial: Treatment: 1-2 leaf stage, evaluation 28 days after the application.

Oryza sativa [5] = test: Table 21 field trial, treatment at the 2 leaf stage: rice damage; type: in vivo; conditions: 2.5 g of ai/ha; field trial, 28 days after application
Source text: (§3) Field trial: Treatment at the 2 leaf stage, evaluation 28 days after the application.

Oryza sativa [6] = test: Table 26 field trial, treatment at the 3 leaf stage: rice damage; type: in vivo; conditions: 33 days after application
Source text: (§4) Field trial: Treatment at the 3 leaf stage, evaluation 33 days after the application.

Scirpus maritimus = test: Table 15 greenhouse trial, treatment at the 2-3 leaf stage: weed control; type: in vivo; conditions: 20 days after application
Protocol: (§5) Seeds or rhizome pieces of mono- and dicotyledonous weed plants are placed into sandy loam soil in plastic pots, covered with soil and grown in a greenhouse under good growth conditions (temperature, atmospheric humidity, water supply). Weeds which are encountered in the cultivation of rice are cultivated in pots in which the water level is up to 2 cm over the soil surface. Three weeks after sowing, the test plants are treated at the three-leaf stage. The active compound combinations according to the invention, formulated as wettable powders or emulsion concentrates, and, in parallel experiments, the correspondingly formulated individual active compounds are sprayed onto the green parts of the plants at different dosages using an amount of water of 300 to 600 l/ha (converted), and, after about 3 to 4 weeks of the test plants in the greenhouse under optimum growth conditions (temperature, atmospheric humidity, water supply), the effect of the preparations is evaluated visually in comparison to untreated controls. In the case of rice or weeds which are encountered in the cultivation of rice, the active compounds are also added directly to the water for irrigation (application analogous to the so-called granules application) or sprayed onto plants and added to the water for irrigation. The experiments were designed with several, up to five, repetitions. The herbicidal compositions according to the invention also have good herbicidal post-emergence activity against a broad spectrum of economically important weed grasses and broad-leaved weeds.

Echinochloa crusgalli [7] = test: Table 17 field trial, treatment at the 2 leaf stage: weed control; type: in vivo; conditions: 14 days after application
Source text: Field trial: Treatment at the 2 leaf stage, evaluation 14 days after the application.

Oryza sativa [8] = test: Table 16 greenhouse trial, treatment at the 2-3 leaf stage: rice damage; type: in vivo; conditions: 20 days after application
Protocol: as §5
Greenhouse trail: Treatment at the 2-3 leaf stage, evaluation 20 days after the application.

ECHCO = test: Table 2 field trial, treatment at the 2-3 leaf stage weed grasses: weed control; type: in vivo, Echinochloa colona; conditions: 28 days after application
Protocol: (§7) The examples mentioned below were carried out in the greenhouse, and in some instances, in field trials.

Eleusine indica = test: as above; type: in vivo; conditions: 28 days after application
Protocol: as §7

Echinochloa crusgalli [9] = test: Table 18 field trial, treatment at the 1-2 leaf stage: weed control; type: in vivo; conditions: 14 days after application
Source text: (§6) Field trial: Treatment at the 1-2 leaf stage, evaluation 14 days after the application.

Commelina benghalensis = test: Table 26 field trial, treatment at the 3 leaf stage: weed control; type: in vivo; conditions: 33 days after application
Source text: as §4

Oryza sativa [10] = test: Table 5 field trial, treatment at the 2-4 leaf stage rice: rice damage; type: in vivo; conditions: evaluation after 28 days
Protocol: as §7

Cyperus serotinus = test: Table 21 field trial, treatment at the 2 leaf stage: weed control; type: in vivo; conditions: 2.5 g of ai/ha, 28 days after application
Source text: as §3

Cyperus iria [11] = test: Table 24 field trial, treatment by the pre-emergence method: weed control; type: in vivo; conditions: 53 days after application
Source text: Field trial: Treatment by the pre-emergence method, evaluation 53 days after the application.

Sagittaria pygmaea = test: Table 22 field trial, treatment: 1-2 leaf stage: weed control; type: in vivo; conditions: 28 days after application
Source text: as §2

Oryza sativa [12] = test: Table 18 field trial, treatment at the 1-2 leaf stage: rice damage; type: in vivo; conditions: 14 days after application
Source text: as §6

Oryza sativa [13] = test: Table 2 field trial, treatment at the 1-2 leaf stage rice: rice damage; conditions: 28 days after application
Protocol: as §7

Oryza sativa [14] = test: Table 10 greenhouse trial, treatment at the 1-2 leaf stage: rice damage; type: in vivo; conditions: in vivo
Protocol: as §5
Greenhouse trial: Treatment at the 1-2 leaf stage, evaluation 20 days after the application.

Leptochloa filiformis = test: Table 2a field trial, treatment at the 2-3 leaf stage weed grasses: weed control; type: in vivo; conditions: 28 days after application
Protocol: as §7

Q: For `COC(=O)c1ccc(I)cc1S(=O)(=O)NC(=O)Nc1nc(C)nc(OC)n1` [A1*), Sodium salt of methyl 4-iodo-2-[3-(4-methoxy-6-methyl-1,3,5-triazin-2-yl)ureidosulfonyl]benzoate], which CYPIR % control (Cyperus iria [1]; 0.62 g of ai/ha) is on record?
A: 53%

Q: And the CYPIR % control (Cyperus iria [1]; 1.25 g of ai/ha)?
A: 85%

Q: What about the CYPIR % control (Cyperus iria [1]; 2.5 g of ai/ha) of the same molecule?
A: 98%

Q: And the ORYSW % damage (Oryza sativa [2]; 0.62 g of ai/ha)?
A: 3%

Q: What about the ORYSW % damage (Oryza sativa [2]; 1.25 g of ai/ha) of the same molecule?
A: 8%

Q: And the ORYSW % damage (Oryza sativa [2]; 2.5 g of ai/ha)?
A: 12%

Q: And the ORYSW % damage (Oryza sativa [3]; 1.5 g of ai/ha)?
A: 10%

Q: And the ORYSW % damage (Oryza sativa [3]; 3 g of ai/ha)?
A: 10%

Q: What about the ORYSW % damage (Oryza sativa [4]; 2.5 g of ai/ha) of the same molecule?
A: 6%

Q: And the ORYSW % damage (Oryza sativa [4]; 5 g of ai/ha)?
A: 12%

Q: And the ORYSW % damage (Oryza sativa [5])?
A: 8%

Q: And the ORYSW % damage (Oryza sativa [6]; 2.5 g of ai/ha)?
A: 0%

Q: And the ORYSW % damage (Oryza sativa [6]; 5 g of ai/ha)?
A: 0%

Q: And the SCIMA % control (Scirpus maritimus; 1.25 g of ai/ha)?
A: 35%

Q: What about the SCIMA % control (Scirpus maritimus; 2.5 g of ai/ha) of the same molecule?
A: 40%

Q: What about the SCIMA % control (Scirpus maritimus; 5 g of ai/ha) of the same molecule?
A: 45%

Q: What about the ECHCG % control (Echinochloa crusgalli [7]; 1 g of ai/ha) of the same molecule?
A: 5%

Q: What about the ECHCG % control (Echinochloa crusgalli [7]; 2 g of ai/ha) of the same molecule?
A: 25%

Q: And the ECHCG % control (Echinochloa crusgalli [7]; 4 g of ai/ha)?
A: 45%

Q: What about the ORYSW % damage (Oryza sativa [8]; 1.25 g of ai/ha) of the same molecule?
A: 5%

Q: What about the ORYSW % damage (Oryza sativa [8]; 2.5 g of ai/ha) of the same molecule?
A: 10%

Q: And the ORYSW % damage (Oryza sativa [8]; 5 g of ai/ha)?
A: 10%

Q: What about the ECHCO % control (ECHCO; 1.25 g of ai/ha) of the same molecule?
A: 0%

Q: And the ECHCO % control (ECHCO; 2.5 g of ai/ha)?
A: 35%

Q: And the ECHCO % control (ECHCO; 5 g of ai/ha)?
A: 37%

Q: What about the ELEIN % control (Eleusine indica; 1.25 g of ai/ha) of the same molecule?
A: 0%

Q: What about the ELEIN % control (Eleusine indica; 2.5 g of ai/ha) of the same molecule?
A: 0%

Q: What about the ELEIN % control (Eleusine indica; 5 g of ai/ha) of the same molecule?
A: 0%

Q: What about the ECHCG % control (Echinochloa crusgalli [9]; 1 g of ai/ha) of the same molecule?
A: 5%

Q: What about the ECHCG % control (Echinochloa crusgalli [9]; 2 g of ai/ha) of the same molecule?
A: 25%

Q: And the COMBE % control (Commelina benghalensis; 2.5 g of ai/ha)?
A: 47%

Q: What about the COMBE % control (Commelina benghalensis; 5 g of ai/ha) of the same molecule?
A: 67%

Q: And the ORYSW % damage (Oryza sativa [10]; 1.25 g of ai/ha)?
A: 0%

Q: And the ORYSW % damage (Oryza sativa [10]; 2.5 g of ai/ha)?
A: 0%

Q: And the ORYSW % damage (Oryza sativa [10]; 5 g of ai/ha)?
A: 1%

Q: What about the CYPSE % control (Cyperus serotinus) of the same molecule?
A: 25%

Q: What about the CYPIR % control (Cyperus iria [11]; 2.5 g of ai/ha) of the same molecule?
A: 17%

Q: And the CYPIR % control (Cyperus iria [11]; 5 g of ai/ha)?
A: 27%

Q: And the SAGPY % control (Sagittaria pygmaea; 2.5 g of ai/ha)?
A: 20%

Q: What about the SAGPY % control (Sagittaria pygmaea; 5 g of ai/ha) of the same molecule?
A: 40%

Q: What about the ORYSW % damage (Oryza sativa [12]; 1 g of ai/ha) of the same molecule?
A: 7%

Q: And the ORYSW % damage (Oryza sativa [12]; 2 g of ai/ha)?
A: 12%

Q: And the ORYSW % damage (Oryza sativa [13]; 1.25 g of ai/ha)?
A: 10%

Q: And the ORYSW % damage (Oryza sativa [13]; 2.5 g of ai/ha)?
A: 25%

Q: What about the ORYSW % damage (Oryza sativa [13]; 5 g of ai/ha) of the same molecule?
A: 25%

Q: And the ORYSW % damage (Oryza sativa [14])?
A: 10%

Q: What about the LEFFI % control (Leptochloa filiformis; 1.25 g of ai/ha) of the same molecule?
A: 0%

Q: What about the LEFFI % control (Leptochloa filiformis; 2.5 g of ai/ha) of the same molecule?
A: 73%

Q: And the LEFFI % control (Leptochloa filiformis; 5 g of ai/ha)?
A: 72%
